The results in this text go back to US20240082293A1, “A VAGINAL CONTRACEPTIVE COMPOSITION FOR REINFORCEMENT OF MUCUS BARRIER PROPERTIES” (CIRQLE BIOMEDICAL CONTRACEPTION ApS, priority 2019, published 2024).

The test system of the experiment is human sperm penetration through human ovulatory cervical mucus. Nature of the experiment: Sperm penetration assay through ovulatory cervical mucus in capillaries (phase contrast microscopy). Type of experiment: cell-based. As to conditions: for sperm penetration through mucus treated with poly-L-lysine (barrier reinforcing effect): PLL 5 mg/mL in 32.5 mM lactic acid solution, 30 minutes after exposure to undiluted sperm. The method, then: Semen samples of patients and volunteers collected at the Andrology, Sexual Medicine, Transmedicine, clinic (ANOVA, Karolinska University Hospital, Sweden) were run through standard semen kinematic analyses and sperm penetration assays no later than 3 h after collection. Data were obtained for the collection time, abstinence time, and semen volume. Semen was gently liquefied for 30 min on a rocker in an incubation chamber heated up to 37° C., after complete collection of ejaculates by masturbation. The viscosity of semen was determined visually and by pipetting. Semen was microscopically analysed by pipetting 6 μl of specimen in pre-warmed Leja® (Netherland) counting chamber slides (20 micron). Subsequently, specimens were assessed via clinical ECLIPSE 50i microscope (Nikon Instruments, Japan) equipped with stage heater MS 100 (37° C., Linkam Scientific Instruments, UK), 10× objective (Ph1) and 0.5× charge coupled device camera UI-1540LE-M-HQ (IDS Imaging Development Systems GmbH, Germany) with total magnification of 5×. The system was connected to the Computer Aided Semen Analysis software QualiSperm (v3.0.9.486, AKYmed, Switzerland). Beside the sperm concentration [106/m1], the progressive motility [%], motility [%], immotility [%], velocity [μm/s], sperm size [μm2], and number of cells were measured. Semen samples meeting the following criteria were included in this study: volume of >1.5 ml, concentration of >15×10^6/mland >40% progressive motility. These criteria reflect reference limits of the World Health Organization (WHO) (“WHO Laboratory Manual for the Examination and Processing of Human Semen” 2010) and values for normal spermatozoa as stated in Bjorndahl (Lars Bjorndahl. 2011. “What Is Normal Semen Quality? On the Use and Abuse of Reference Limits for the Interpretation of Semen Analysis Results.” Human Fertility 14 (3): 179-86). In each run, ten values were generated by assessing five fields in two chambers.
Ovulatory cervical mucus (CVM) (the CVM with highest penetrability) was collected from healthy donors at the Karolinska University Hospital. […]

For poly-L-lysine [66 KDa PLL], the “sperm penetration through mucus treated with poly-L-lysine (barrier reinforcing effect)” value is “able to prevent the entrance of the sperm”. In addition, the “point at which no sperm is seen (distance into the mucus)” value (sperm numbers assessed 30 minutes after exposure to undiluted sperm, polymer in lactic acid solution) is “around 3 cm”.
For “poly-L-lysine [low molecular weight PLL]”, the “sperm penetration through mucus treated with poly-L-lysine (barrier reinforcing effect)” value was “did not have any effect”.
